Results as given in US6841559B1, “Pyridinones to treat and prevent bacterial infections” (Washington University of St. Louis, priority 1999, dated 2005).

What was measured:
[1] = biological target: periplasmic chaperone FimC (Escherichia coli, UniProt P31697); assay: Direct binding assay on BIACORE 3000, immobilized FimC; conditions: pyridinone 30 uM, 25° C., 30 μL/min, triplicate, Sensor Chip CM5
Method: (§1) The affinity of the following pyridinone: [drawing 73] for periplasmic chaperones PapD and FimC were investigated using a direct binding assay on BIACORE 3000. Methods
(§2) PapD (50 μg/ML in 10 mM NaAc pH 5.5) and FimC (50 μg/mL in 10 mM NaAc pH 5.5) were mobilized on Sensor Chi CM5 using standard thiol coupling procedure. This procedure was also employed for coupling of non-target proteins. Immobilization levels of 4000-10000 RU were obtained. Unmodified dextrane in one of the flow cells was used as reference surface.
(§3) The pyridinone was diluted from 10 mM DMSO stock solution to a final concentration of 30 μM in running buffer (6.7 mM phosphate buffer (9.6 g Na2HPO4.2H2O, 1.7 G KH2PO4, 4.1 g NaCl, 100 mL H2O), 3.4 mM EDTA, 0.01% TWEEN, 5% DMSO, pH 7.4) so that the concentrations of DMSO and buffer substances were carefully matched. The compounds were injected (flow rate was 30 μL/min at 25° C.) and the binding of the compounds to the immobilized chaperone proteins was observed on real time. The surface was regenerated by injection of 10 mM glycin.HCl, pH 2.0 and then washed with a 1:1 mixture of DMSO and water.
(§4) For screening of the affinity of the compounds of PapD and FimC, the pyridinone was injected (flow rate was 30 μL/min at 25° C.) at a concentration of 30 μM in triplicate. […]
as §3, with “KH2PO2PO4,” for “KH2PO4,”, “water. […]” for “water.”
(§5) A direct binding assay on BIACORE 3000 was employed to test the affinity of the following pyridinone: [drawing 76] for periplasmic chaperones PapD and FimC. Methods

[2] = biological target: periplasmic chaperone PapD (Escherichia coli, UniProt P15319); assay: Direct binding assay on BIACORE 3000, immobilized PapD; conditions: pyridinone 30 uM, 25° C., 30 μL/min, triplicate, Sensor Chip CM5
Method: as §1, §2, §3, §4
as §3, with “KH2PO2PO4,” for “KH2PO4,”, “water. […]” for “water.”
as §5

Chain of periplasmic chaperone PapD (P15319 22-239): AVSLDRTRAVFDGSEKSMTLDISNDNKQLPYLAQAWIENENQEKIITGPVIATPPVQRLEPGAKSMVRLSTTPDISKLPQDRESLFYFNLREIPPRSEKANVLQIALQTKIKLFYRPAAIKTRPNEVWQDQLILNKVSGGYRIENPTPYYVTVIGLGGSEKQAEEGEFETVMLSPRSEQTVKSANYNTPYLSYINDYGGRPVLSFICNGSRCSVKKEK
Chain of periplasmic chaperone FimC (P31697 37-241): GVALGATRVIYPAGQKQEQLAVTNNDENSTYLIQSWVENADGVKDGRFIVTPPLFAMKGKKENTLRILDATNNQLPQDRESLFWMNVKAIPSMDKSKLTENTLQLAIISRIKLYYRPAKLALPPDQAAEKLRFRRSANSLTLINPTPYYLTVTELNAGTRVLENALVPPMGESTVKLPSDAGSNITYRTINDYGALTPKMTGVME

SMILES	Response Units FimC 30 uM [1]	Response Units PapD 30 uM [2]
Cc1cc(=O)n2c(c1-c1ccccc1)SC[C@H]2C(=O)O [Me_Ph_Pyr_COOH]	6,753367367 Response Units	3,90056354 Response Units
O=C(O)[C@@H]1CSc2c(-c3ccccc3)c(Cc3cccc4ccccc34)cc(=O)n21 [Ph_Pyr_COOH]	60,71350348 Response Units	46,22397585 Response Units
Cc1cc(=O)n2c(c1C)SC[C@H]2C(=O)O [Me_Me_Pyr_COOH]	6,535311642 Response Units	1,676914034 Response Units
O=C(O)[C@@H]1CSc2cc(Cc3cccc4ccccc34)cc(=O)n21 [H_Pyr_COOH]	11,69075072 Response Units	6,760176162 Response Units
